Reference: publication doi:10.1101/2020.08.04.236877v1 (biorxiv, 2020)

Columns and labels:
[1] = target: Transporter, Norepinephrine (NET) (Homo sapiens, UniProt P23975); test: radioligand binding assay; settings: read-out: % inhibition at 10 μM
[2] = target: Histamine H2 (Homo sapiens, UniProt P25021); test: radioligand binding assay; settings: read-out: % inhibition or stimulation at 10 μM
[3] = target: Androgen (Testosterone) (Homo sapiens, UniProt P10275); test: radioligand binding assay; settings: read-out: % inhibition at 10 μM
[4] = target: Transporter, Dopamine (DAT) (Homo sapiens, UniProt Q01959); test: radioligand binding assay; settings: read-out: % inhibition at 10 μM
[5] = target: Serotonin 5-HT2B (Homo sapiens, UniProt P41595); test: radioligand binding assay; settings: read-out: % inhibition at 10 μM
[6] = target: Platelet Activating Factor (PAF) (Homo sapiens, UniProt P25105); test: biochemical; settings: read-out: % inhibition or stimulation (human)
[7] = target: Epidermal Growth Factor (EGF) (Homo sapiens, UniProt P00533); test: biochemical; settings: read-out: % inhibition or stimulation (human)
[8] = target: Glucocorticoid (Homo sapiens, UniProt P04150); test: biochemical; settings: read-out: % inhibition or stimulation (human)
[9] = target: Adenosine A1 (Homo sapiens, UniProt P30542); test: biochemical; settings: read-out: % inhibition or stimulation (human)
[10] = target: Adenosine A2A (Homo sapiens, UniProt P29274); test: biochemical; settings: read-out: % inhibition or stimulation (human)
[11] = target: Adenosine A3 (Homo sapiens, UniProt P0DMS8); test: biochemical; settings: read-out: % inhibition or stimulation (human)
[12] = target: Adrenergic α1A (Homo sapiens, UniProt P35348); test: biochemical; settings: read-out: % inhibition or stimulation (human)
[13] = target: Adrenergic α1B (Homo sapiens, UniProt P35368); test: biochemical; settings: read-out: % inhibition or stimulation (human)
[14] = target: Adrenergic α1D (Homo sapiens, UniProt P25100); test: biochemical; settings: read-out: % inhibition or stimulation (human)
[15] = target: Adrenergic α2A (Homo sapiens, UniProt P08913); test: biochemical; settings: read-out: % inhibition or stimulation (human)
[16] = target: Adrenergic β1 (Homo sapiens, UniProt P08588); test: biochemical; settings: read-out: % inhibition or stimulation (human)
[17] = target: Adrenergic β2 (Homo sapiens, UniProt P07550); test: biochemical; settings: read-out: % inhibition or stimulation (human)
[18] = target: Bradykinin B1 (Homo sapiens, UniProt P46663); test: biochemical; settings: read-out: % inhibition or stimulation (human)
[19] = target: Bradykinin B2 (Homo sapiens, UniProt P30411); test: biochemical; settings: read-out: % inhibition or stimulation (human)
[20] = target: Cannabinoid CB1 (Homo sapiens, UniProt P21554); test: biochemical; settings: read-out: % inhibition or stimulation (human)
[21] = target: Dopamine D1 (Homo sapiens, UniProt P21728); test: biochemical; settings: read-out: % inhibition or stimulation (human)
[22] = target: Dopamine D2S (Homo sapiens, UniProt P14416); test: biochemical; settings: read-out: % inhibition or stimulation (human)
[23] = target: Dopamine D3 (Homo sapiens, UniProt P35462); test: biochemical; settings: read-out: % inhibition or stimulation (human)
[24] = target: Dopamine D4.4 (Homo sapiens, UniProt P21917); test: biochemical; settings: read-out: % inhibition or stimulation (human)
[25] = target: Endothelin ETA (Homo sapiens, UniProt P25101); test: biochemical; settings: read-out: % inhibition or stimulation (human)
[26] = target: Endothelin ETB (Homo sapiens, UniProt P24530); test: biochemical; settings: read-out: % inhibition or stimulation (human)
[27] = target: Estrogen ERα (Homo sapiens, UniProt P03372); test: biochemical; settings: read-out: % inhibition or stimulation (human)
[28] = target: Histamine H1 (Homo sapiens, UniProt P35367); test: biochemical; settings: read-out: % inhibition or stimulation (human)
[29] = target: Histamine H3 (Homo sapiens, UniProt Q9Y5N1); test: biochemical; settings: read-out: % inhibition or stimulation (human)
[30] = target: Interleukin IL-1 R1 (Homo sapiens, UniProt P14778); test: biochemical; settings: read-out: % inhibition or stimulation (human)
[31] = target: Leukotriene, Cysteinyl CysLT1 (Homo sapiens, UniProt Q9Y271); test: biochemical; settings: read-out: % inhibition or stimulation (human)
[32] = target: Melatonin MT1 (Homo sapiens, UniProt P48039); test: biochemical; settings: read-out: % inhibition or stimulation (human)
[33] = target: Muscarinic M1 (Homo sapiens, UniProt P11229); test: biochemical; settings: read-out: % inhibition or stimulation (human)
[34] = target: Muscarinic M2 (Homo sapiens, UniProt P08172); test: biochemical; settings: read-out: % inhibition or stimulation (human)
[35] = target: Muscarinic M3 (Homo sapiens, UniProt P20309); test: biochemical; settings: read-out: % inhibition or stimulation (human)
[36] = target: Neuropeptide Y Y1 (Homo sapiens, UniProt P25929); test: biochemical; settings: read-out: % inhibition or stimulation (human)
[37] = target: Neuropeptide Y Y2 (Homo sapiens, UniProt P49146); test: biochemical; settings: read-out: % inhibition or stimulation (human)
[38] = target: Nicotinic Acetylcholine α1, Bungarotoxin (Homo sapiens, UniProt P02708); test: biochemical; settings: read-out: % inhibition or stimulation (human)
[39] = target: Nicotinic Acetylcholine α3β4 (Homo sapiens, UniProt P30926+P32297); test: biochemical; settings: read-out: % inhibition or stimulation (human)
[40] = target: Opiate µ (OP3, MOP) (Homo sapiens, UniProt P35372); test: biochemical; settings: read-out: % inhibition or stimulation (human)
[41] = target: Opiate δ1 (OP1, DOP) (Homo sapiens, UniProt P41143); test: biochemical; settings: read-out: % inhibition or stimulation (human)
[42] = target: Opiate κ (OP2, KOP) (Homo sapiens, UniProt P41145); test: biochemical; settings: read-out: % inhibition or stimulation (human)
[43] = target: Potassium Channel hERG (Homo sapiens, UniProt Q12809); test: in vitro
[44] = target: Prostanoid EP4 (Homo sapiens, UniProt P35408); test: biochemical; settings: read-out: % inhibition or stimulation (human)
[45] = target: Serotonin (5-Hydroxytryptamine) 5-HT1A (Homo sapiens, UniProt P08908); test: biochemical; settings: read-out: % inhibition or stimulation (human)
[46] = target: Serotonin (5-Hydroxytryptamine) 5-HT3 (Homo sapiens, UniProt P46098); test: biochemical; settings: read-out: % inhibition or stimulation (human)
[47] = target: Sigma σ1 (Homo sapiens, UniProt Q99720); test: biochemical; settings: read-out: % inhibition or stimulation (human)
[48] = target: Tachykinin NK1 (Homo sapiens, UniProt P25103); test: biochemical; settings: read-out: % inhibition or stimulation (human)
[49] = target: Transporter, Serotonin (5- Hydroxytryptamine) (SERT) (Homo sapiens, UniProt P31645); test: biochemical; settings: read-out: % inhibition or stimulation (human)

Sequence of Leukotriene, Cysteinyl CysLT1 (Q9Y271 whole entry): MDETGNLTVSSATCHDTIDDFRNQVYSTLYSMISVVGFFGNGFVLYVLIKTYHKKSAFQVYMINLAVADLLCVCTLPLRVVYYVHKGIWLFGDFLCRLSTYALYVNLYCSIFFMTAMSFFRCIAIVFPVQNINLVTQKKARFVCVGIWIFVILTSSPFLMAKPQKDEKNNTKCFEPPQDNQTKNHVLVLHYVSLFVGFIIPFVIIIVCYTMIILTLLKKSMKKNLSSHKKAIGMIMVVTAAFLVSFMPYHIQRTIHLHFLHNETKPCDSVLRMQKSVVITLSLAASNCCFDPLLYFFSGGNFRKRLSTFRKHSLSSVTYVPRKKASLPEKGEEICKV
Sequence of Sigma σ1 (Q99720 whole entry): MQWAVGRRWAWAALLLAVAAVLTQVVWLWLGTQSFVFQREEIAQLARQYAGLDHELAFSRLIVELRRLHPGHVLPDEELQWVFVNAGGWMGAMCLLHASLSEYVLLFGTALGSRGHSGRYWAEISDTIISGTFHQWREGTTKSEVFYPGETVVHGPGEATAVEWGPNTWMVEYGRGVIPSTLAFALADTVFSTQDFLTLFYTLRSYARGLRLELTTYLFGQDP
Sequence of Melatonin MT1 (P48039 whole entry): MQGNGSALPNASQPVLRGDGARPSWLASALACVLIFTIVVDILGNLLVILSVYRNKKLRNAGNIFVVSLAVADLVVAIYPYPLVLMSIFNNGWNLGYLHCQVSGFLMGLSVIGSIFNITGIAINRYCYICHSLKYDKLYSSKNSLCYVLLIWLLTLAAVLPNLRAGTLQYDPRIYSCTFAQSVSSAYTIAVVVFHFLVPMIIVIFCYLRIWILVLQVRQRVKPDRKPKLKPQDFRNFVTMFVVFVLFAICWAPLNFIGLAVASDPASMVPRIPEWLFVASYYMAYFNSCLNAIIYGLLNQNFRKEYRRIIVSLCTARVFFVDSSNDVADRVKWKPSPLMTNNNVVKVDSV
Sequence of Serotonin (5-Hydroxytryptamine) 5-HT3 (P46098 whole entry): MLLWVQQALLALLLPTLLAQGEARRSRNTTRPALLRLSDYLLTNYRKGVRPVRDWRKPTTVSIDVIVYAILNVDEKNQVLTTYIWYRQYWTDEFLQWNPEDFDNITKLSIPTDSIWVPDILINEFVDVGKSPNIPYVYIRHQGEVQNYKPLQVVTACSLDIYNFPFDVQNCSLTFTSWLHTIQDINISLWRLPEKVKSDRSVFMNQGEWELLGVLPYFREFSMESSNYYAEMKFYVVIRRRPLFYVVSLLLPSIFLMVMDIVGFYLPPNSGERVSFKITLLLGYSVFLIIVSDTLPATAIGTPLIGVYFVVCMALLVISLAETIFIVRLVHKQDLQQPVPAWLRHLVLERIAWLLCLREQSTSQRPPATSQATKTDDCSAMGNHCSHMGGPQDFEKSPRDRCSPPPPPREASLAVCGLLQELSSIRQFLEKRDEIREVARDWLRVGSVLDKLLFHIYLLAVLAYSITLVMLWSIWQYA
Sequence of Adrenergic α1D (P25100 whole entry): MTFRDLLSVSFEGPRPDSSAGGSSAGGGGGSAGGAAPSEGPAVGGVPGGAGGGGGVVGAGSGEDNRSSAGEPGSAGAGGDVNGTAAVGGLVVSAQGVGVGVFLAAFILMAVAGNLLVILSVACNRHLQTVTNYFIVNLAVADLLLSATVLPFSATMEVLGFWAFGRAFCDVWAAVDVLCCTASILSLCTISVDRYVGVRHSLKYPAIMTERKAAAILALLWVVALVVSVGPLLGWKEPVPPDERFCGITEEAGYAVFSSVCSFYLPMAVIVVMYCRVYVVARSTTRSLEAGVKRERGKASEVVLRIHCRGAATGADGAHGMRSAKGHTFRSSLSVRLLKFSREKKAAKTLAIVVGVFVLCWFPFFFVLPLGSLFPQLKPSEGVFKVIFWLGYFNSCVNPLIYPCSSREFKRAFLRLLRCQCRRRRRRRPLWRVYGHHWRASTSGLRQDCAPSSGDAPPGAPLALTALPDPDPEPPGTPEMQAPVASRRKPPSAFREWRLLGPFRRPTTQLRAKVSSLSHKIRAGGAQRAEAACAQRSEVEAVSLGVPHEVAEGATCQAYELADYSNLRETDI
Sequence of Endothelin ETA (P25101 whole entry): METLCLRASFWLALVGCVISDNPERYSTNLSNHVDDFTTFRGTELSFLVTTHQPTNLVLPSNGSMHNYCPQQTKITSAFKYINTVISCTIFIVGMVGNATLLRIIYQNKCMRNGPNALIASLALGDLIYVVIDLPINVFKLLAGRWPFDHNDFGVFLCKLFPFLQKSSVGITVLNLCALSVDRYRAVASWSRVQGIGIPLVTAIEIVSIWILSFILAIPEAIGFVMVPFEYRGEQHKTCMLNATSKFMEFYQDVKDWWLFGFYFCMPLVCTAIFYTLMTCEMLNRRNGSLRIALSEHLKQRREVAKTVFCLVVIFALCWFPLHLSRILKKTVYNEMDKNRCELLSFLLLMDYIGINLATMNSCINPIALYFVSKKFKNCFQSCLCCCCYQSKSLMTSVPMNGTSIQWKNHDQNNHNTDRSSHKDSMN
Sequence of Adrenergic β2 (P07550 whole entry): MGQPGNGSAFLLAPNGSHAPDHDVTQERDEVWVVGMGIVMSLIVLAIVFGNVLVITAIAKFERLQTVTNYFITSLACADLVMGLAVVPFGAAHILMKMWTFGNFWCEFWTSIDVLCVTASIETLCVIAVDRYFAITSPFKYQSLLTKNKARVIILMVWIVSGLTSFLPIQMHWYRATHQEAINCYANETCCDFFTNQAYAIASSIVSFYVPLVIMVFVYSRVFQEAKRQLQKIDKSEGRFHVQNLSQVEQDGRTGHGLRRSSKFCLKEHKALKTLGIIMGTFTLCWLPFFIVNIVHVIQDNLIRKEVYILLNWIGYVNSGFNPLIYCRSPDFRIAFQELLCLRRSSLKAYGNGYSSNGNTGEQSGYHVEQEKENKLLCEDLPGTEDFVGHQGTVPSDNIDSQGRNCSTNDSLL
Sequence of Transporter, Norepinephrine (NET) (P23975 whole entry): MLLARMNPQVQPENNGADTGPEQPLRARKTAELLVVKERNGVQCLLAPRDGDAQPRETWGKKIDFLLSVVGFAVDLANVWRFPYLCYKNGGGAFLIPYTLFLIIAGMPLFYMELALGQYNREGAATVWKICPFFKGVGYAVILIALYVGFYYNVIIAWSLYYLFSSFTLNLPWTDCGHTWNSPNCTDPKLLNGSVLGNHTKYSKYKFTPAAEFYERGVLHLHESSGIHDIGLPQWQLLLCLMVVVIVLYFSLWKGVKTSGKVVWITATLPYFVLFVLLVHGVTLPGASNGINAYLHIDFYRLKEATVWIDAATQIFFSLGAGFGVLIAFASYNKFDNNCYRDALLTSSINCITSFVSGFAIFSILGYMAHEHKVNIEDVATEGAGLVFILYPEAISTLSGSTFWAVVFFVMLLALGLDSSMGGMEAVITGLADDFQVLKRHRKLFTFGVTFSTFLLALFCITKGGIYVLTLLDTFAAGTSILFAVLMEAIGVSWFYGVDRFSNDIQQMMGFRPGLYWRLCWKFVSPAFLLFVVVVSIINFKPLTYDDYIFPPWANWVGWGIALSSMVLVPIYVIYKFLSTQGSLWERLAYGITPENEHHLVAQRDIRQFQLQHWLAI
Sequence of Histamine H1 (P35367 whole entry): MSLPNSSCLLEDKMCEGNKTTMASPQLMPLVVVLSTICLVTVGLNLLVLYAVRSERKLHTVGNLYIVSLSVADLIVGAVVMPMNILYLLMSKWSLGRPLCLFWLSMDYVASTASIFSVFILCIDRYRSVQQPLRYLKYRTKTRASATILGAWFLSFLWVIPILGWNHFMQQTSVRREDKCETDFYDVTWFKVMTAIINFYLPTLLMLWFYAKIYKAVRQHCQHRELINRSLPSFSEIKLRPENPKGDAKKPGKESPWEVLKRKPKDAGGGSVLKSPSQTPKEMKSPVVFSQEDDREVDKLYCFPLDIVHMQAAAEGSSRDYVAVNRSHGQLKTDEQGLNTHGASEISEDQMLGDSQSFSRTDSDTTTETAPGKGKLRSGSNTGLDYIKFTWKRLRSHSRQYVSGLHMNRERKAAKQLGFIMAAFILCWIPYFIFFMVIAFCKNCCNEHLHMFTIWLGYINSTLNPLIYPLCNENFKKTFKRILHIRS
Sequence of Estrogen ERα (P03372 whole entry): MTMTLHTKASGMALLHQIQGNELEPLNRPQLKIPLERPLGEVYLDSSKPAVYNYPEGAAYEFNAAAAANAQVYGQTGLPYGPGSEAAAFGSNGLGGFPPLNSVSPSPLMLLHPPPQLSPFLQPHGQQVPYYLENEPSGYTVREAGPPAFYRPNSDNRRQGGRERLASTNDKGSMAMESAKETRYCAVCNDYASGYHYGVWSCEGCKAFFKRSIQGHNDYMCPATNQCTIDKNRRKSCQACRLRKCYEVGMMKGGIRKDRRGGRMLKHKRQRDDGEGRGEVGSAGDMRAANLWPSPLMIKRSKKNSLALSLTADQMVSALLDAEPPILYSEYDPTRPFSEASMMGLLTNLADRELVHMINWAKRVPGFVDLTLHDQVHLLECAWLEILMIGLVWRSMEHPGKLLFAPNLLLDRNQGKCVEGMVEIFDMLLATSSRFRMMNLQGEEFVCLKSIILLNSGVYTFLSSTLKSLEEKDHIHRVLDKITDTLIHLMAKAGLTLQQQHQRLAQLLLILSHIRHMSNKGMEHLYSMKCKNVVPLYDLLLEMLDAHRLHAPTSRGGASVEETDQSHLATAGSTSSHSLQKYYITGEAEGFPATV
Sequence of Cannabinoid CB1 (P21554 whole entry): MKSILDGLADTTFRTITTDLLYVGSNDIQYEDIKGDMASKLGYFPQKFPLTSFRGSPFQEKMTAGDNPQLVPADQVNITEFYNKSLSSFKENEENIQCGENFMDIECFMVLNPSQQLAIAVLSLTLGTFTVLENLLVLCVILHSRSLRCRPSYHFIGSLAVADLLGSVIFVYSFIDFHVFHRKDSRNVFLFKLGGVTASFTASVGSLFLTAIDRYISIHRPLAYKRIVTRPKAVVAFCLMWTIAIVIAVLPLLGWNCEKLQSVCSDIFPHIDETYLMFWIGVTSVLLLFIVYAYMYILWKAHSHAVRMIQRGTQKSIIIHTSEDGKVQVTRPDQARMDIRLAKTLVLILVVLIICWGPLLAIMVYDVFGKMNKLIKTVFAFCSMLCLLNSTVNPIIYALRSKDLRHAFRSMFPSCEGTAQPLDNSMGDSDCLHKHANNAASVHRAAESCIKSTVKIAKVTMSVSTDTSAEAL

**Q.** With CC(C)(C)c1ccc(C2=C(/C=N/O)CCC2)cc1 [8n, (E)-2-(4-(tert-butyl)phenyl)cyclopent-1-ene-1-carbaldehyde oxime] as the compound, how does the inhibition at 10 µM [1] read?
**A.** 75%

**Q.** What about the inhibition at 10 µM [2] of the same compound?
**A.** -54%

**Q.** And the inhibition at 10 µM [3]?
**A.** 79%

**Q.** What about the inhibition at 10 µM [4] of the same compound?
**A.** 86%

**Q.** And the inhibition at 10 µM [5]?
**A.** 63%

**Q.** And the inhibition at 10 µM [6]?
**A.** -14%

**Q.** And the inhibition at 10 µM [7]?
**A.** 2%

**Q.** What about the inhibition at 10 µM [8] of the same compound?
**A.** -4%

**Q.** And the inhibition at 10 µM [9]?
**A.** 33%

**Q.** What about the inhibition at 10 µM [10] of the same compound?
**A.** 16%

**Q.** What about the inhibition at 10 µM [11] of the same compound?
**A.** 45%

**Q.** What about the inhibition at 10 µM [12] of the same compound?
**A.** 5%

**Q.** And the inhibition at 10 µM [13]?
**A.** -15%

**Q.** What about the inhibition at 10 µM [14] of the same compound?
**A.** 7%

**Q.** What about the inhibition at 10 µM [15] of the same compound?
**A.** 14%

**Q.** And the inhibition at 10 µM [16]?
**A.** 4%

**Q.** And the inhibition at 10 µM [17]?
**A.** 12%

**Q.** And the inhibition at 10 µM [18]?
**A.** -3%

**Q.** What about the inhibition at 10 µM [19] of the same compound?
**A.** -27%

**Q.** And the inhibition at 10 µM [20]?
**A.** 20%

**Q.** What about the inhibition at 10 µM [21] of the same compound?
**A.** 30%

**Q.** And the inhibition at 10 µM [22]?
**A.** 12%

**Q.** What about the inhibition at 10 µM [23] of the same compound?
**A.** 23%

**Q.** And the inhibition at 10 µM [24]?
**A.** -15%

**Q.** And the inhibition at 10 µM [25]?
**A.** 11%

**Q.** What about the inhibition at 10 µM [26] of the same compound?
**A.** 0%

**Q.** What about the inhibition at 10 µM [27] of the same compound?
**A.** 6%

**Q.** What about the inhibition at 10 µM [28] of the same compound?
**A.** 42%

**Q.** And the inhibition at 10 µM [29]?
**A.** 0%

**Q.** What about the inhibition at 10 µM [30] of the same compound?
**A.** 19%

**Q.** And the inhibition at 10 µM [31]?
**A.** 25%

**Q.** What about the inhibition at 10 µM [32] of the same compound?
**A.** -3%

**Q.** What about the inhibition at 10 µM [33] of the same compound?
**A.** 0%

**Q.** What about the inhibition at 10 µM [34] of the same compound?
**A.** 7%

**Q.** What about the inhibition at 10 µM [35] of the same compound?
**A.** 9%

**Q.** What about the inhibition at 10 µM [36] of the same compound?
**A.** -6%

**Q.** And the inhibition at 10 µM [37]?
**A.** -11%

**Q.** And the inhibition at 10 µM [38]?
**A.** 0%

**Q.** And the inhibition at 10 µM [39]?
**A.** -1%

**Q.** What about the inhibition at 10 µM [40] of the same compound?
**A.** 9%

**Q.** What about the inhibition at 10 µM [41] of the same compound?
**A.** 7%

**Q.** What about the inhibition at 10 µM [42] of the same compound?
**A.** 0%

**Q.** What about the inhibition at 10 µM [43] of the same compound?
**A.** 25%

**Q.** What about the inhibition at 10 µM [44] of the same compound?
**A.** 34%

**Q.** And the inhibition at 10 µM [45]?
**A.** -42%

**Q.** And the inhibition at 10 µM [46]?
**A.** -5%

**Q.** And the inhibition at 10 µM [47]?
**A.** 33%

**Q.** And the inhibition at 10 µM [48]?
**A.** -2%

**Q.** And the inhibition at 10 µM [49]?
**A.** 13%
